Peptide text beside a SMILES is read from it.
Each molecule was assayed on pMHC tetramer positive T-cell lines. Conditions: 18 h.
Description: To examine the ligand sensitivity of the generated peptide specific cell lines, INF-γ production was measured after stimulation with T2 cells that were loaded with a range of peptide concentrations (Figure 4). In this assay (performed for 8 representative cell lines), peptide concentrations required for T-cell recognition were compared to those required for a previously identified T-cell clone that is specific for the HMHA-1H epitope.
HLA A2^+ T2 cells were pulsed with specific MiHA peptide. Peptide concentrations were titrated in 10-fold dilution steps starting from 10ug/ml. T-cell reactivity was analyzed by cytokine secretion in a standard IFN γ ELISA. Data are presented as cytokine concentration. Shown are eight representative generated T-cell lines and a high affinity control clone specific for HMHA-1H (open square).
MiHA specific T-cell lines (1×10^4) were stimulated with HLA-A2^+ T2 cells, EBV-LCLs or T-cell blasts (2,5×10^4) in 96 well plates for 18 h at 37°C and 5% CO2. Peptide pulsing was performed by incubating stimulator cells for 1 h with synthetic peptides (1 µg/ml) in IMDM containing 2% FCS and cells were washed twice before use. Cytokine release was measured by IFN γ ELISA (Sanquin) according to the manufacturer's instructions.
In the case of `CC(C)C[C@H](NC(=O)[C@H](CC(C)C)NC(=O)[C@H](CC(=O)O)NC(=O)[C@H](CC(=O)O)NC(=O)[C@H](Cc1c[nH]cn1)NC(=O)[C@H](CC(C)C)NC(=O)[C@@H](N)C(C)C)C(=O)N[C@@H](CCC(=O)O)C(=O)N[C@@H](C)C(=O)O` [P46 HMHA1VLH] (H-VLHDDLLEA-OH), the IC50 is reported as ~0.05 nM.
With `CC(C)C[C@H](NC(=O)[C@@H]1CCCN1C(=O)[C@H](CC(C)C)NC(=O)[C@H](C)NC(=O)[C@H](C)NC(=O)[C@H](Cc1c[nH]c2ccccc12)NC(=O)[C@H](CC(C)C)NC(=O)[C@@H]1CCCN1C(=O)[C@H](CC(C)C)NC(=O)[C@H](CC(C)C)NC(=O)[C@@H](N)CCCNC(=N)N)C(=O)O` [P104 ZFP36L2RLL] (H-RLLPLWAALPL-OH) the IC50 was ~500 nM.
`CC[C@H](C)[C@H](NC(=O)[C@@H](N)CO)C(=O)N[C@@H](CCC(N)=O)C(=O)N[C@@H](CC(N)=O)C(=O)N[C@@H](Cc1ccc(O)cc1)C(=O)N[C@@H](Cc1c[nH]cn1)C(=O)N1CCC[C@H]1C(=O)N[C@@H](Cc1ccccc1)C(=O)N[C@@H](C)C(=O)O` [P37 DOCK2SIQ] (H-SIQNYHPFA-OH) was tested, and the IC50 was ~500 nM.
For `CC[C@H](C)[C@H](N)C(=O)N[C@@H](CCSC)C(=O)N[C@@H](C)C(=O)N[C@H](C(=O)N[C@@H](CCC(=O)O)C(=O)N[C@@H](CC(C)C)C(=O)N[C@@H](C)C(=O)N[C@@H](CCC(=O)O)C(=O)N[C@@H](CC(C)C)C(=O)O)[C@@H](C)CC` [P218 MAP4K1IMA] (H-IMAIELAEL-OH), the IC50 was ~0.05 nM.
For `CSCC[C@H](NC(=O)[C@@H](N)CO)C(=O)N[C@@H](CS)C(=O)N[C@@H](CCCNC(=N)N)C(=O)N[C@@H](Cc1ccccc1)C(=O)N[C@@H](CO)C(=O)N1CCC[C@H]1C(=O)N[C@@H](CC(C)C)C(=O)N[C@H](C(=O)N[C@@H](CC(C)C)C(=O)O)[C@@H](C)O` [P309 HSPA6SMC] (H-SMCRFSPLTL-OH), the IC50 was ~5 nM.

Same assay, conditions: read-out: IC50, peptide concentration required for T-cell recognition (IFN γ production); HLA-A2+ T2 cells pulsed with peptide, 10-fold dilution steps from 10ug/ml; 18 h; IFN γ ELISA; value given for the group of cell lines
Molecule `CSCC[C@H](NC(=O)[C@@H](N)CCCCN)C(=O)N[C@@H](CC(N)=O)C(=O)N[C@H](C(=O)N[C@@H](Cc1ccccc1)C(=O)N[C@@H](CC(=O)O)C(=O)N[C@H](C(=O)N[C@@H](CC(N)=O)C(=O)N[C@@H](CC(C)C)C(=O)O)[C@@H](C)O)C(C)C` [P203 ATP2A3KMN] (H-KMNVFDTNL-OH) has an IC50 of ~500 nM.
`CC[C@H](C)[C@H](NC(=O)[C@H](CC(=O)O)NC(=O)[C@H](CCSC)NC(=O)CNC(=O)[C@H](Cc1ccccc1)NC(=O)[C@H](CC(C)C)NC(=O)[C@H](CCC(=O)O)NC(=O)[C@H](Cc1c[nH]cn1)NC(=O)[C@H](CC(C)C)NC(=O)[C@@H](NC(=O)[C@@H](N)CCCCN)C(C)C)C(=O)O` [P91 FLT3KVL] (H-KVLHELFGMDI-OH) showed an IC50 of ~5 nM.
